Experimental data as given in US20090130194A1, “Methods of Treating Cancer with High Potency Lipid-Based Platinum Compound Formulations Administered Intravenously” (Transave, Inc., priority 2005, published 2009).

Columns and labels:
[1] = Pharmacokinetics and organ distribution of ip and iv injected L-CDDP and CDDP (platinum by ICP-MS); type: in vivo, ICR mice; settings: 8 mg/kg
Procedure: Pharmacokinetics and organ distribution in animals of ip and iv injected lipid-complexed cisplatin and cisplatin (Part II). Sixty ICR mice (female, 7 weeks old) were divided into 4 groups. They received intraperitoneal or intravenous injection of L-CDDP or CDDP, separately. The dose was 12 mg/kg for ip L-CDDP and 8 mg/kg for the rest of treatment groups. At each designed time point, three to four mice were anaesthetized with 70 mg/kg of Nembutal ip (e.g., 3, 20, and 40 min, and 2, 8, 24, 48, and 72 h). […] Organs including liver, lung, and spleen were resected from the mice. The organ samples were homogenized in distilled water (4-fold of the sample weight) and digested with nitric acid. The platinum concentration in each sample was measured by Inductively Coupled Plasma-Mass Spectrometer (ICP-MS). The pharmacokinetics profiles (FIGS. 4, 5, and 6, all Y-axes are concentration of μg platinum in one gram of tissue or fluid per mg of injected dose) and parameters (Table 2) of each formulation were simulated and calculated.

[2] = Nephrotoxicity: blood urea nitrogen (BUN); type: in vivo; settings: MTD
Text: Nephrotoxicity. ICR mice, 7 weeks old, female, were divided into 4 groups with 3 to 4 mice in each. […] Four days after the injection, the mice were euthanized with Nembutal ip. The blood was drawn and the serum was isolated. The blood urea nitrogen (BUN) was quantitatively measured with a calorimetric method at Antech Diagnostics. Organs including duodenum, heart, kidney, liver, lung, and spleen were resected from the mice and fixed with 10% buffered Formalin. The fixed tissues were processed with standard procedure for H and E staining. A pathology expert Dr. Carman Tornos at the Memorial Sloan-Kettering Cancer Center examined kidney tissues and gave a toxicity grade to each kidney tissue sample. The grading was based on the general pathology guidelines for kidney toxicity.

SMILES: N.N.[Cl][Pt][Cl] [CDDP, cis diamminedichloroplatinum]
- AUC, Liver [1]: 19.96 µg·h/g/µg
- AUC, Lung [1]: 5.58 µg·h/g/µg
- AUC, Spleen [1]: 8.11 µg·h/g/µg
- Cmax, Liver [1]: 0.74 µg/g/µg
- Cmax, Lung [1]: 0.28 µg/g/µg
- BUN level change (in words) ([2]; either route): increase
- BUN level increase compared with normal controls ([2]; ip, 4 days after injection, p=0.04): 2.1 fold
